Experimental data published in patent US20170166555A1, “FUNCTIONALISED AND SUBSTITUTED INDOLES AS ANTI-CANCER AGENTS” (Novogen Limited, priority 2013, published 2017).

Key:
[1] = system: non-transfected and Tm5NM1 stably transfected MEFs; assay: MTT viability in non-transfected versus Tm5NM1 stably transfected MEFs; format: cell-based, mouse; conditions: 48 hr, FIG. 1
Protocol: FIG. 1: Activity of selected compounds against Tm5NM1/2 transfected mouse embryonic fibroblasts versus non-transfected MEFs.
Compounds 4001, 4010, 4014, 4008 and 4015 were then screened against non-transfected and Tm5NM1 stably transfected MEFs. Briefly, MEFs were transfected with pEYFP-C1/Tm5NM1 constructs using the Amaxa nucleofector apparatus (program A-023) and MEF nucleofector kit 1 (Lonza) according to the manufacturer's instructions. Cell viability assays were also conducted to assess the anti-proliferative effects of the anti-tropomyosin compounds. Briefly, cells (1×10^3/well) were plated (96-well) and treated (48 hr) with anti-tropomyosin compounds and viability measured using 3-(4,5-dimethylthiazol-2-yl)-2, 5-diphenylterazolium bromide MTT. Cell viability was normalized to control (vehicle alone) and dose-response curves, and half maximal effective concentration (EC50) values were determined using Graph Pad Prism 5 (nonlinear regression sigmoidal dose-response variable slope).

A375 melanoma xenograft = A375 melanoma xenograft efficacy study; format: in vivo, Foxn-1 nu/nu athymic mice; conditions: hydrochloride salt, 20 mg/kg intravenously QD, 15 days
Protocol: FIG. 6: Tumor volumes ±SEM of animals treated with Control (Carbonate vehicle) or compound 4015 (20 mg/kg, I.V., QD).
(§1) In vivo efficacy studies for compound 4015 hydrochloride salt were conducted using an A375 melanoma xenograft model in Foxn-1 nu/nu athymic mice. The human melanoma cell line A375 (sourced from American Type Culture Collection (ATCC), USA) was used for developing the flank xenograft model. Briefly, five million cells were injected subcutaneously in the right flank region of the animal. When the tumors reached 130-150 mm^3 the animals were randomized into two groups, each group with 8 animals in them, so that the average tumor volume of all the groups was same.
(§2) First group received vehicle (sodium bicarbonate buffer) intravenously once a day (QD). The second group received compound 4015 at 20 mg/kg, intravenously (QD) (Table 7). The volume of dosing to each animal was calculated and adjusted every day based on individual body weight measured prior to dosing.
(§3) Animals were treated from the day of randomization (Day 1) for 15 days. Body weight and tumor dimensions (length and diameter) were measured three times in a week including the termination day of the study. Throughout the study period, mice were monitored daily for clinical condition.

[2] = Tolerance in the A375 xenograft study (body weight, clinical observations); format: in vivo; conditions: hydrochloride salt, 20 mg/kg intravenously QD, 15 days
Protocol: FIG. 5: Average body weight measurement ±SEM (grams) of animals in Control (Carbonate vehicle) and compound 4015 (20 mg/kg, I.V., QD) treated animals.
as §1, §2, §3

[3] = system: glioblastoma (U251) cells; assay: Cell viability, CellTiter 96 AQueous, 72 hours; format: cell-based; conditions: Homo sapiens, U-251
Protocol: (§4) The anti-proliferative activity of compound 4093 against ovarian cancer (SKOV3) and glioblastoma (U251) cells was also evaluated (Table 6). Briefly, cells were seeded at 2000 cells/well in a 96 well plate. 24 hrs post plating, each cell line was exposed to various concentrations of ATM-4093 (10, 5, 3,1, 0.7, 0.5, 0.3, 0.1 μM) for 72 hours. Cell viability was determined using CellTiter 96 AQueous (Promega) and absorbance measured at 490 nm on the SpectraMax M2 plate reader. Cell viability was normalized to control (vehicle alone) and dose-response curves, and half maximal effective concentration (EC50) values were determined using Graph Pad Prism 6 (nonlinear regression sigmoidal dose-response variable slope).

[4] = system: ovarian cancer (SKOV3) cells; assay: Cell viability, CellTiter 96 AQueous, 72 hours; format: cell-based; conditions: Homo sapiens, SK-OV-3
Protocol: as §4

[5] = system: total actin cytoskeleton in SK-N-SH neuroblastoma cells; assay: Microfilament disruption assay, 488-Atto-Phallodin imaging and filament quantitation; format: cell-based; conditions: 0-40 μM, 24 h, FIG. 2
Protocol: (§5) FIG. 2: Imaging and quantitation of actin filaments in SK—N—SH neuroblastoma cells treated with compound (A) 4093 and (B) 4113. Cells were stained with 488-Atto-Phallodin and DAPI to visualize the actin filament bundles and the nucleus, respectively. Shown in the top panel is a representative grey scale immunofluorescent image from control (vehicle alone), 5 μM and 10 μM treated cells. […] The coloured lines indicate the detected actin filaments. Also shown is the quantitation of cell number, filament number/cell and filament number/cell area ([…]). […]
(§6) The ability of compounds 4093 and 4113 to disrupt the total actin cytoskeleton (FIG. 2) and to specifically target Tm5NM1-containing actin filaments (FIG. 3) was assessed in vitro using the microfilament disruption assay.
(§7) Briefly, SK-N-SH neuroblastoma cells were seeded at 1800 cells/well in a 384 Perkin Elmer High Content Imaging “View” plate and left to plate down 24 h prior to treatment. […] Images were then exported and changes in the organization and numbers of actin filaments within the cell were quantitated using a linear feature detection algorithm developed by the CSIRO. […] It is these “ridge lines” that correspond to actin filament bundles and allow us to quantitate the number of filaments per cell.

[6] = system: Tm5NM1-containing actin filaments in SK-N-SH neuroblastoma cells; assay: Microfilament disruption assay, γ9d staining imaging and filament quantitation; format: cell-based; conditions: 0-40 μM, 24 h, FIG. 3
Protocol: as §5, with “FIG. 3:” for “FIG. 2:”, “with γ9d (sheep polycolonal, 1:100) followed by 488-conjugated secondary (1:1000)” for “with 488-Atto-Phallodin”, “the Tm5NM1 containing” for “the actin”
as §6, §7

Row | SMILES | Selectivity: toxicity against primary MEFs versus MEFs stably transfected with Tm5NM1/2 [1] | Reduction in tumor growth compared to control (A375 melanoma xenograft) [%] | Tolerability (body weight and clinical observations) [2] | IC50 [3] [µM] | IC50 [4] [µM] | Disruption of the total actin cytoskeleton [5] | Disruption of Tm5NM1-containing actin filaments [6]
1 | Cc1c(C)n(CCCN(C)C)c2ccc(CN3CCN(CCc4ccccc4)CC3)cc12 [Compound 4015, 3-(2,3-dimethyl-5-((4-phenethylpiperazin-1-yl)methyl)-1H-indol-1-yl)-N,N-dimethylpropan-1-amine] | less toxicity noted against primary mouse embryonic fibroblasts (MEFs) compared with MEFs stably transfected with Tm5NM1/2 | 26 | well tolerated | – | – | – | –
2 | Cc1c(C)n(CCCN(C)C)c2ccc(Oc3ccc(C(=O)Nc4ccc(F)cc4)cc3)cc12 [Compound 4093, 4-((1-(3-(dimethylamino)propyl)-2,3-dimethyl-1H-indol-5-yl)oxy)-N-(4-fluorophenyl)benzamide] | – | – | – | 0.5 | 0.6 | disrupt both the total actin cytoskeleton and Tm5NM1-containing actin filaments in a dose-dependent manner | disrupt both the total actin cytoskeleton and Tm5NM1-containing actin filaments in a dose-dependent manner
